Where “and” joins values, the source holds several entries; their conditions need not be identical. Identical values can stand only once. Like-named read-outs stand apart in the source and are kept apart here. Some results are limits rather than exact numbers.

Assay [1] relates to CDK1-cyclin B. Conditions: radiolabelled γ33P-ATP kinase assay, read-out: IC50 Published measurements CDK1B, cited from earlier work.
Another assay has as its target T1, monomeric CDK2 (Homo sapiens, UniProt P24941).
T1 construct: Human CDK2 (encompassing full length residues 1-298); GST (N, cleaved yes); made in house; host or cells: E. coli
Nature of the assay: biochemical. Type of assay: binding. Conditions: DSF; phosphorylated monomeric CDK2; 10 μM inhibitor. The protocol: (§1) The stability of the CDK1 and CDK2 inhibitor complexes were assessed by differential scanning fluorimetry (DSF) using a ViiA7 Real-Time PCR system (Applied Biosystems). Purified CDK1 (4 μM) and CDK2 (6 uM) in their respective gel filtration buffers were assayed in the presence of 10 μM inhibitor in 8% DMSO, in triplicate, in a 384-well plate. […] The resulting data was plotted and the inflection point (Tm) calculated using the Boltzmann equation in Applied Biosystems software.

The next assay concerns the target T2, monomeric CDK1 (Homo sapiens, UniProt P06493).
T2 construct: Full-length human CDK1 was expressed in insect cells either untagged (from pVL1393) or as a 3C-protease cleavable GST fusion; GST (N, cleaved yes); made in house; host or cells: insect cells (Sf9 baculovirus)
Kind of assay: Differential scanning fluorimetry (DSF), CDK1. It is filed as binding. Conditions: read-out: ΔTm CDK1. The protocol:
as §1

Assay [2] has as its target T3, CDK2-cyclin A (Homo sapiens, UniProt P24941). Nature of the assay: biochemical. Type of assay: binding. More on the design: Human CDK2 (encompassing full length residues 1-298); GST (N, cleaved yes); made in house; host or cells: E. coli (CDK2 and cyclin A2). Conditions: phosphorylated CDK2-cyclin A complex; 30°C; n = 2, ± SD; read-out: ITC Kd CDK2A. As for the experimental part:
(§2) Individual protein samples were exchanged into ITC buffer (40 mM HEPES, 500 mM NaCl, 0.25 mM TCEP, pH 8.0) at 4°C using a Hitrap desalting column (GE Healthcare Life Sciences, Chicago, IL, USA) (i.e. CDK1 and cyclin B were not combined to form a complex prior to buffer exchange). Protein concentration was then determined at A280 nm using a Nanodrop 2000 (Thermoscientific, Waltham, MA, USA) and sequence derived extinction coefficients (http://web.expasy.org/protparam/). Proteins and compounds were degassed at 30°C directly before analysis. Compounds at 100 μM prepared in ITC buffer (40 mM HEPES, 500 mM NaCl, 0.25 mM TCEP, pH 8.0) and to a final DMSO concentration of 1% were titrated into 200 μL protein solutions prepared at 10 μM, 1% DMSO in the cell. All experiments used phosphorylated forms of CDK1 and CDK2 (on T161 or T160 respectively). For experiments carried out in the absence of cyclin, proteins were prepared on ice to a final concentration of 10 μM in ITC buffer and supplemented with 1% DMSO.

For assay [3], the target named is T4, CDK1-cyclin B (Homo sapiens, UniProt P06493).
T4 construct: Full-length human CDK1 was expressed in insect cells either untagged (from pVL1393) or as a 3C-protease cleavable GST fusion; GST (N, cleaved yes); made in house; host or cells: CDK1: insect cells (Sf9 baculovirus); cyclin B1: E. coli
Nature of the assay: biochemical. As to conditions: ADP-Glo, 20 μM ATP, 20 μM peptide, 4 nM CDK1-cyclin B. As for the experimental part:
(§3) Briefly, the 5 inhibitors in the study were titrated against phosphorylated CDK2–cyclin A and CDK1–cyclin B, with reaction initiated through addition of ATP and substrate peptide HHASPRK (Enzo Scientific). ATP to ADP conversion was assessed using the ADP-Glo assay (Promega) essentially as described by the manufacturers. […] Reactions were initiated by the addition of 20 μM ATP and 20 μM peptide. All activity assays were performed in triplicate in white low volume 384-well plates using a PheraStar plate reader (BMG).

The target in assay [4] is T4, CDK1-cyclin B. Nature of the assay: biochemical. It is filed as binding. As to conditions: phosphorylated CDK1-cyclin B complex; 30°C; n = 2, ± SD; read-out: ITC Kd CDK1B. As for the experimental part:
as §2

For assay [5], the target named is T5, phosphorylated monomeric CDK2 (Homo sapiens, UniProt P24941).
T5 construct: Human CDK2 (encompassing full length residues 1-298); GST (N, cleaved yes); made in house; host or cells: E. coli
Nature of the assay: biochemical. It is filed as binding. Conditions: phosphorylated monomeric (cyclin-free) CDK2; 30°C; n = 2, ± SD; read-out: ITC Kd CDK2. The protocol: as §2

Assay [6] has as its target T6, phosphorylated monomeric CDK1 (Homo sapiens, UniProt P06493).
T6 construct: Full-length human CDK1 was expressed in insect cells either untagged (from pVL1393) or as a 3C-protease cleavable GST fusion; GST (N, cleaved yes); made in house; host or cells: insect cells (Sf9 baculovirus)
Nature of the assay: biochemical. It is filed as binding. Conditions: phosphorylated monomeric (cyclin-free) CDK1; 30°C; n = 2, ± SD; read-out: ITC Kd CDK1. As for the experimental part: as §2

Assay [7] addresses T3, CDK2-cyclin A. Nature of the assay: biochemical. Details: Human CDK2 (encompassing full length residues 1-298); GST (N, cleaved yes); made in house; host or cells: E. coli. As to conditions: ADP-Glo, 20 μM ATP, 20 μM peptide, 1.5 nM CDK2-cyclin A. As for the experimental part:
as §3

Assay [8] deals with T7, GST-tagged unphosphorylated CDK2 (Homo sapiens, UniProt P24941).
T7 construct: Human CDK2 (encompassing full length residues 1-298); made in house; host or cells: E. coli BL21(DE3)STAR
Nature of the assay: biochemical. It is filed as binding. As to conditions: unphosphorylated monomeric GST-CDK2; 20°C; duplicate, ± SD; read-out: SPR Kd CDK2. The protocol:
(§4) SPR ligand interactions assays were performed on a Biacore S200 (GE Healthcare Life Sciences) at 20°C using multi-cycle settings. GST-tagged unphosphorylated CDK1 and CDK2 were immobilised onto the surface of a CM5 chip pre-immobilised with anti-GST antibody, provided as part of the GST-capture kit (GE Healthcare Life Sciences, catalogue number BR100223) following the GST immobilisation kit instructions. As a control, recombinant GST was immobilised onto the designated control flow cell. […] Preceding injection of each compound, three cycles of buffer injections were carried out over all surfaces (30 μL/min for 60 s with 360 s dissociation). Compounds were then injected over all surfaces (from low to high concentration) for 60 s at 30 μL/min before being allowed to dissociate for 360 s to record dose-responses. […] The experiment was conducted in SPR running buffer (20 mM HEPES, 150 mM NaCl, 0.01% Tween-20®, 1% DMSO, pH 7.4) and used an 8-point DMSO solvent correction (preparation of DMSO in DMSO-free SPR buffer to final concentrations of: 0.2%, 0.4%, 0.6%, 0.8% 1%, 1.2%, 1.4%, 1.6%) to account for any bulk flow interactions.

The target of assay [9] is T8, GST-tagged unphosphorylated CDK1 (Homo sapiens, UniProt P06493).
T8 construct: Full-length human CDK1 was expressed in insect cells either untagged (from pVL1393) or as a 3C-protease cleavable GST fusion; made in house; host or cells: insect cells (Sf9 baculovirus)
Kind of assay: biochemical. It is filed as binding. As to conditions: unphosphorylated monomeric GST-CDK1; 20°C; duplicate, ± SD; read-out: SPR Kd CDK1. The protocol: as §4

The subject of assay [10] is CDK2-cyclin A. Conditions: radiolabelled γ33P-ATP kinase assay; ref Lane et al., 2001; read-out: IC50 Published measurements CDK2A; cited from earlier work.
The subject of assay [11] is CDK1-cyclin B. As to conditions: read-out: IC50 Published measurements CDK1B; scintillation proximity assay; ref Whittaker et al., 2017; Byth et al., 2009; cited from earlier work.
[12] abbreviates: DSF, phosphorylated monomeric CDK1, 10 μM inhibitor.

T2 sequence (P06493 whole entry, the tested form may be a part): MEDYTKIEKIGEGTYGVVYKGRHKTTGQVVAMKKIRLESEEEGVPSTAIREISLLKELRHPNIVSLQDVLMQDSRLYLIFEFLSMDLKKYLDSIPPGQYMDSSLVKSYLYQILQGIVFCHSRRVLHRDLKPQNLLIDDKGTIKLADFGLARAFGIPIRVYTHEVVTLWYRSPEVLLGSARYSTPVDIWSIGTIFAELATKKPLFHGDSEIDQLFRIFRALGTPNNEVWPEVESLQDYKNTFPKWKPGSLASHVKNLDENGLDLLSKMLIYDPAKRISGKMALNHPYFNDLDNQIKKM
T4 sequence (P06493 whole entry, the tested form may be a part): as above
T4 sequence (P14635 with tags, fused parts or gaps C167S/C238S/C350S partner limits assumed): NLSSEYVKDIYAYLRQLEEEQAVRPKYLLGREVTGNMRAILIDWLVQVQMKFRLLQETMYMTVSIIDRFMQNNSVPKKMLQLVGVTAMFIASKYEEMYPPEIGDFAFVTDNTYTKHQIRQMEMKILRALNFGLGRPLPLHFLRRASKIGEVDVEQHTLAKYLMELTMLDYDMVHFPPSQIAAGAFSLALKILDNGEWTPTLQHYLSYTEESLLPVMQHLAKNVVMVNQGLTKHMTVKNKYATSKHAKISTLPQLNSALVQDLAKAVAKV
T8 sequence (P06493 whole entry, the tested form may be a part): as the sequence (P06493 whole entry, the tested form may be a part) above
T6 sequence (P06493 whole entry, the tested form may be a part): as above

In the case of `CCn1cnc2c(Nc3cccc(Cl)c3)nc(NC3CCCCC3N)nc21` (stereo not shown) [CGP74514A], the IC50 in the assay on CDK1-cyclin B [1] (ref Imbach et al., 1999) was 25 nM; at CDK1-cyclin B [3] (read-out: IC50 Lab measurements CDK1B), 833 nM; at CDK2-cyclin A [7] (read-out: IC50 Lab measurements CDK2A), 33 nM. Further, the ΔTm at 10 µM was 5.2 °C at monomeric CDK2 and -3.3 °C on monomeric CDK1. The Kd on CDK2-cyclin A [2] is 224 ± 14 nM; at CDK1-cyclin B [4], 950 ± 50 nM; in [5], 715 ± 15 nM; in assay [6] it was over 20000 nM; in assay [8], 312 ± 52 nM; in assay [9], 13500 nM. Further, the Ki on CDK1-cyclin B [3] (read-out: Ki (in parenthesis) Lab measurements CDK1B) came out at 463 nM; at CDK2-cyclin A [7] (read-out: Ki (in parenthesis) Lab measurements CDK2A) it was 18.3 nM.
With `COc1ccc2c(c1)/C(=C/c1cnc[nH]1)C(=O)N2` [SU9516], in the assay on CDK2-cyclin A [10], the IC50 is […].
As for `CN1CC[C@H](c2c(O)cc(O)c3c(=O)cc(-c4ccccc4Cl)oc23)[C@H](O)C1` [Alvocidib], the IC50 with CDK1-cyclin B [1] (ref Whittaker et al., 2017, Asghar et al., 2015, Byth et al., 2009, Mariaule and Belmont, 2014, Kim et al., 2000) was […]. Besides, the ΔTm at 10 µM on monomeric CDK2 was found to be 7.3 °C; on monomeric CDK1 (setting [12]), 0.9 °C.
In the case of `Cc1ncc(-c2ccnc(Nc3ccc(S(C)(=O)=O)cc3)n2)n1C(C)C` [AZD5438], at monomeric CDK1 (setting [12]), the ΔTm at 10 µM is -2.6 °C. The IC50 in the assay on CDK1-cyclin B [11] is 16 nM.

(Values after PMC6344228 (Cell Chemical Biology, 2019).)
